Literature values as cited in patent US20070298069A1, “Medical devices for release of low solubility therapeutic agents” (Boston Scientific Scimed, Inc., priority 2006, published 2007).

System: most gram positive and gram negative aerobic and anaerobic bacteria, some yeast and fungi
Conditions: in most organisms tested

For `Oc1cc(Cl)ccc1Oc1ccc(Cl)cc1Cl` [triclosan], the MIC is given as under 0.3 ppm.
